Results on 23 molecules are retold here after patent publication US10414734B2, “5-hydroxyalkylbenzimidazoles as mIDH1 inhibitors” (BAYER PHARMA AKTIENGESELLSCHAFT, priority 2015, dated 2019).

Each structure is given as a SMILES string.

This assay deals with IDH1 R132H enzyme (Homo sapiens (Human), UniProt O75874, R132H). Nature of the assay: Mutant IDH1 R132H biochemical assay. The note with it: luminescent NADPH consumption readout; 1.5 nM enzyme, 1 μM NADPH, 250 μM α-KG, 30 min, 32° C. The protocol: Mutant IDH1 R132H Biochemical Assay
Sequence of IDH1 R132H enzyme (O75874 whole entry R132H): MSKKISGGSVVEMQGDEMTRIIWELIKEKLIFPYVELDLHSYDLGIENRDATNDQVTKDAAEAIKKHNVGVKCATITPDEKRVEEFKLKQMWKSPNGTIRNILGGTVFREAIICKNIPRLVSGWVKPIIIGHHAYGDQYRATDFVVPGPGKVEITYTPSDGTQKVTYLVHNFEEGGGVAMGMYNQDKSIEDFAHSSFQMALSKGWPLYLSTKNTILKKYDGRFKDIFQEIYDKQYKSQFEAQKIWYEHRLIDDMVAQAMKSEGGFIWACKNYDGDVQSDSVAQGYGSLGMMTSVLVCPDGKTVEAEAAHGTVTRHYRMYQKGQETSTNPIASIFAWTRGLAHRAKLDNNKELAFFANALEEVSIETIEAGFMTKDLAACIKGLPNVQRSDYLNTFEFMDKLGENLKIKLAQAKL
mIDH1 catalyzes the NADPH-dependent reduction of alpha-ketoglutarate (α-KG) to (2R)-2-hydroxyglutarate (2-HG). NADPH consumption was measured by luminescent readout.
The biochemical reactions were performed at 32° C. in 384-well plates using a reaction volume of 41 μL and the following assay buffer conditions: 50 mM Tris pH 7.5, 100 mM NaCl, 20 mM MgCl2, 0.05% BSA, 0.01% Brij, 1 μM NADPH, and 250 μM α-KG. The IDH1 R132H enzyme was used in a final concentration of 1.5 nM. Test compounds were used in a concentration range between 0.002 and 10 μM. The final DMSO concentration was 2.4%.
The reaction was incubated for 30 minutes, then 40 μL of detection mix (0.75 μg/ml Luciferase, 0.02 U/ml Oxidoreductase, 4 μg/mL FMN, 2 μL/ml decanal/ethanol, 50 mM Tris pH 7.5, 0.5% Glycerin, 0.01% Tween-20, 0.05% BSA) was added. Luminescence was measured on a luminescent reader (10 seconds measuring time, 1 second integration period, 30% sensitivity). The decrease in luminescence is proportional to mIDH1 activity. IC50 values are determined by interpolation from plots of relative luminescence versus inhibitor concentration.

The term IC50 denotes the concentration that gives 50% inhibition. A low value points to inhibition by little substance. `COc1cc2c(cc1CC(C)(C)O)nc(Nc1ccc(OC(F)(F)F)cc1)n2[C@H]1C[C@@H](C)CC(C)(C)C1` (single isomer, unassigned; enantiomer b) [Example 2-9-2, 1-(6-methoxy-2-{[4-(trifluoromethoxy)phenyl]amino}-1-[(cis)-3,3,5-trimethylcyclohexyl]-1H-benzimidazol-5-yl)-2-methylpropan-2-ol, enantiomer B] had an IC50 of 10 nM.

The molecule `CC(C)Oc1ccc(Nc2nc3cc(CCC(C)(C)O)ccc3n2[C@@H]2C[C@H](C)CC[C@H]2C(C)C)cc1` [Example 2-20, 4-{2-[(4-isopropoxyphenyl)amino]-1-[(1R,2S,5R)-2-isopropyl-5-methylcyclohexyl]-1H-benzimidazol-5-yl}-2-methylbutan-2-ol] showed an IC50 of 300 nM. Then `Cc1cc2c(cc1C(C)(C)O)nc(Nc1ccc(OC(F)(F)F)cc1)n2[C@H]1C[C@@H](C)CC(C)(C)C1` (single isomer, unassigned; enantiomer a) [Example 2-3-1, 2-(6-methyl-2-{[4-(trifluoromethoxy)phenyl]amino}-1-[(cis)-3,3,5-trimethylcyclohexyl]-1H-benzimidazol-5-yl)propan-2-ol, enantiomer A], with 80 nM; and `CC(C)[C@@H]1CC[C@@H](C)C[C@H]1n1c(Nc2ccc(OC(F)(F)F)cc2)nc2cc(C(C)(C)O)ccc21` [Example 2-13, 2-(1-[(1R,2S,5R)-2-isopropyl-5-methylcyclohexyl]-2-{[4-(trifluoromethoxy)phenyl]-amino}-1H-benzimidazol-5-yl)propan-2-ol], with 80 nM; and `Cc1cc2c(cc1CC(C)(C)O)nc(Nc1ccc(OC(F)(F)F)cc1)n2[C@H]1C[C@@H](C)CC(C)(C)C1` (single isomer, unassigned; enantiomer a) [Example 2-8-1, 2-methyl-1-(6-methyl-2-{[4-(trifluoromethoxy)phenyl]amino}-1-[(cis)-3,3,5-trimethylcyclohexyl]-1H-benzimidazol-5-yl)propan-2-ol, enantiomer A], with 120 nM. The value for `CC(C)[C@@H]1CC[C@@H](C)C[C@H]1n1c(Nc2ccc(OC(F)(F)F)cc2)nc2cc(CCC(C)(C)O)ccc21` [Example 2-18, 4-(1-[(1R,2S,5R)-2-isopropyl-5-methylcyclohexyl]-2-{[4-(trifluoro-methoxy)phenyl]amino}-1H-benz-imidazol-5-yl)-2-methylbutan-2-ol] was 100 nM; that for `COc1cc2c(cc1CC(C)(C)O)nc(Nc1ccc(OC(F)(F)F)cc1)n2[C@H]1C[C@@H](C)CC(C)(C)C1` (racemic) [Example 2-9, (±) 1-(6-methoxy-2-{[4-(trifluoromethoxy)phenyl]amino}-1-[(cis)-3,3,5-trimethylcyclohexyl]-1H-benzimidazol-5-yl)-2-methylpropan-2-ol] was 20 nM; that for `Cc1cc2c(cc1CC(C)(C)O)nc(Nc1ccc(OC(F)(F)F)cc1)n2[C@H]1C[C@@H](C)CC(C)(C)C1` (single isomer, unassigned; enantiomer b) [Example 2-8-2, 2-methyl-1-(6-methyl-2-{[4-(trifluoromethoxy)phenyl]amino}-1-[(cis)-3,3,5-trimethylcyclohexyl]-1H-benzimidazol-5-yl)propan-2-ol, enantiomer B] was 10 nM.

As for `COc1cc2c(cc1CO)nc(Nc1ccc(OC(F)(F)F)cc1)n2[C@H]1C[C@@H](C)CC(C)(C)C1` (racemic) [Example 2-6, (±) (6-methoxy-2-{[4-(trifluoromethoxy)phenyl]amino}-1-[(cis)-3,3,5-trimethylcyclohexyl]-1H-benzimidazol-5-yl)methanol], it took 20 nM to reach half-maximal inhibition (IC50). The value for `CC(C)Oc1ccc(Nc2nc3cc(CC(C)(C)O)ccc3n2[C@@H]2C[C@H](C)CC[C@H]2C(C)C)cc1` [Example 2-17, 1-{2-[(4-isopropoxyphenyl)amino]-1-[(1R,2S,5R)-2-isopropyl-5-methylcyclohexyl]-1H-benz-imidazol-5-yl}-2-methylpropan-2-ol] was 160 nM. Then `C[C@@H]1C[C@H](n2c(Nc3ccc(OC(F)(F)F)cc3)nc3cc(CCC(C)(C)O)ccc32)CC(C)(C)C1` (single isomer, unassigned; enantiomer a) [Example 2-11-1, 2-methyl-4-(2-{[4-(trifluoromethoxy)phenyl]amino}-1-[(cis)-3,3,5-trimethylcyclohexyl]-1H-benzimidazol-5-yl)butan-2-ol, enantiomer A], with 210 nM.

Take `C[C@@H]1C[C@H](n2c(Nc3ccc(OC(F)(F)F)cc3)nc3cc(CO)ccc32)CC(C)(C)C1` (single isomer, unassigned; enantiomer b) [Example 2-1-2, (2-{[4-(trifluoromethoxy)phenyl]amino}-1-[(cis)-3,3,5-trimethylcyclohexyl]-1H-benzimidazol-5-yl)methanol, enantiomer B]: the IC50 came out at 70 nM. `COc1cc2c(cc1CCC(C)(C)O)nc(Nc1ccc(OC(F)(F)F)cc1)n2[C@H]1C[C@@H](C)CC(C)(C)C1` (single isomer, unassigned; enantiomer a) [Example 2-12-1, 4-(6-methoxy-2-{[4-(trifluoromethoxy)phenyl]amino}-1-[(cis)-3,3,5-trimethylcyclohexyl]-1H-benzimidazol-5-yl)-2-methylbutan-2-ol, enantiomer A] showed an IC50 of 50 nM.

`COc1cc2c(cc1CC(C)(C)O)nc(Nc1ccc(OC(F)(F)F)cc1)n2[C@H]1C[C@@H](C)CC(C)(C)C1` (single isomer, unassigned; enantiomer a) [Example 2-9-1, 1-(6-methoxy-2-{[4-(trifluoromethoxy)phenyl]amino}-1-[(cis)-3,3,5-trimethylcyclohexyl]-1H-benzimidazol-5-yl)-2-methylpropan-2-ol, enantiomer A] had an IC50 of 30 nM. For the molecule `CC(C)[C@@H]1CC[C@@H](C)C[C@H]1n1c(Nc2ccc(OC(F)(F)F)cc2)nc2cc(CC(C)(C)O)ccc21` [Example 2-15, 1-(1-[(1R,2S,5R)-2-isopropyl-5-methylcyclohexyl]-2-{[4-(trifluoro-methoxy)phenyl]amino}-1H-benz-imidazol-5-yl)-2-methylpropan-2-ol], the midpoint of inhibition, the IC50, lay at 40 nM.

The molecule `CC(C)c1ccc(Nc2nc3cc(C(C)(C)O)ccc3n2[C@@H]2C[C@H](C)CC[C@H]2C(C)C)cc1` [Example 2-14, 2-{1-[(1R,2S,5R)-2-isopropyl-5-methylcyclohexyl]-2-[(4-isopropyl-phenyl)amino]-1H-benzimidazol-5-yl}propan-2-ol] registered a concentration for half-maximal inhibition (IC50) of 120 nM. Consider `Cc1cc2c(cc1CC(C)(C)O)nc(Nc1ccc(OC(F)(F)F)cc1)n2[C@H]1C[C@@H](C)CC(C)(C)C1` (racemic) [Example 2-8, (±) 2-methyl-1-(6-methyl-2-{[4-(trifluoromethoxy)phenyl]amino}-1-[(cis)-3,3,5-trimethylcyclohexyl]-1H-benzimidazol-5-yl)propan-2-ol], for which half-maximal inhibition (IC50) was put at 30 nM. In turn, `CC(C)c1ccc(Nc2nc3cc(CCC(C)(C)O)ccc3n2[C@@H]2C[C@H](C)CC[C@H]2C(C)C)cc1` [Example 2-19, 4-{1-[(1R,2S,5R)-2-isopropyl-5-methylcyclohexyl]-2-[(4-isopropyl-phenyl)amino]-1H-benzimidazol-5-yl}-2-methylbutan-2-ol] yielded an IC50 of 290 nM.

`COc1cc2c(cc1CCC(C)(C)O)nc(Nc1ccc(OC(F)(F)F)cc1)n2[C@H]1C[C@@H](C)CC(C)(C)C1` (single isomer, unassigned; enantiomer b) [Example 2-12-2, 4-(6-methoxy-2-{[4-(trifluoromethoxy)phenyl]amino}-1-[(cis)-3,3,5-trimethylcyclohexyl]-1H-benzimidazol-5-yl)-2-methylbutan-2-ol, enantiomer B] displayed an IC50 of 10 nM. `C[C@@H]1C[C@H](n2c(Nc3ccc(OC(F)(F)F)cc3)nc3cc(CC(C)(C)O)c(F)cc32)CC(C)(C)C1` (racemic) [Example 2-10, (±) 1-(6-fluoro-2-{[4-(trifluoromethoxy)phenyl]amino}-1-[(cis)-3,3,5-trimethylcyclohexyl]-1H-benzimidazol-5-yl)-2-methylpropan-2-ol] registered an IC50 of 240 nM.

Molecule `CC(C)c1ccc(Nc2nc3cc(CC(C)(C)O)ccc3n2[C@@H]2C[C@H](C)CC[C@H]2C(C)C)cc1` [Example 2-16, 1-{1-[(1R,2S,5R)-2-isopropyl-5-methylcyclohexyl]-2-[(4-isopropyl-phenyl)amino]-1H-benzimidazol-5-yl}-2-methylpropan-2-ol] yielded an IC50 of 60 nM.

Molecule `Cc1cc2c(cc1C(C)(C)O)nc(Nc1ccc(OC(F)(F)F)cc1)n2[C@H]1C[C@@H](C)CC(C)(C)C1` (single isomer, unassigned; enantiomer b) [Example 2-3-2, 2-(6-methyl-2-{[4-(trifluoromethoxy)phenyl]amino}-1-[(cis)-3,3,5-trimethylcyclohexyl]-1H-benzimidazol-5-yl)propan-2-ol, enantiomer B] gave an IC50 of 20 nM. On to `C[C@@H]1C[C@H](n2c(Nc3ccc(OC(F)(F)F)cc3)nc3cc(CC(C)(C)O)c(F)cc32)CC(C)(C)C1` (single isomer, unassigned; enantiomer a) [Example 2-10-1, 1-(6-fluoro-2-{[4-(trifluoromethoxy)phenyl]amino}-1-[(cis)-3,3,5-trimethylcyclohexyl]-1H-benzimidazol-5-yl)-2-methylpropan-2-ol, enantiomer A], for which the IC50 amounted to 320 nM.
